Experimental data published in patent US9879036B2, “Mitochondrial aldehyde dehydrogenase-2 binding compounds and methods of use thereof” (Aviv Therapeutics, Inc., priority 2014, dated 2018).
Entries after “also recorded” stand apart in the source; their conditions may differ.

Tested on: FANCA deficiency lymphocyte cell line (FANCA B-lymphocyte, GM13022)
Test: Proliferation of FANCA deficient lymphocytes under 4 HNE challenge (alamarBlue)
Assay type: cell-based
Description: FANCA deficiency lymphocyte cell line (Fanconi Anemia, Complementation Group A, FANCA B-lymphocyte, GM13022) was purchased from Coriell Cell Repositories (403 Haddon Ave, Camden, N.J. 08103).
Standard cell culture conditions were used in this experiment. The culture medium (CM) consisted of culture medium RPMI1640, 15% heat-inactivated FBS, 2 mM L-glutamine, 1% Pen/Strep. Cells were suspended in 10-20 ml CM in T25 tissue culture flask in an upright position and incubated in a 37° C., 5% CO2 incubator. Cells were counted daily and diluted with fresh CM to 3×10^5 cells/ml. Cells thawed and maintained in culture for 3-12 days were used in these studies.
Cell densities of FANCA lymphocytes were determined and cells were diluted in RPMI1640 medium containing 15% FBS, 2 mM L-glutamine, 1% Pen/Strep to desired cell density. 4000 cells in 50-75 μl were plated onto each well in total 48 wells in columns 3-10 and rows B-G. This plating arrangement provided 6-replicates per column for each experimental condition. Plate was then centrifuged at 500 rpm for 2 min to ensure better distribution of cells across the well. For background medium controls, equal volume (50-75 μl) of dilution medium were added to wells B2, C2, D2.
For minimizing cells/medium drying in sample wells, 150 μl of 1×DPBS was added to each well of the 45 wells surrounding the sample and control wells. Plate was then incubated in a 37° C. 5% CO2 incubator for at least 4 hours before addition of new reagent.
Compounds were diluted from 20 mM stocks in DMSO with RPMI1640 medium containing 15% FBS. RPMI1640 medium containing 15% FBS and corresponding volume of DMSO was used as controls.
4 HNE (64 mM in 100% ethanol) was diluted to desired concentrations with RPMI1640 base medium.
AlamarBlue was added to each well to final 9.1 or 10% of the total volume in each well. Plate was further incubated in the 37° C. 5% CO2 incubator. The alamarBlue assay is designed to measure quantitatively the proliferation of human and animal cell lines in culture versus incubation time period.
Plate was removed from the CO2 incubator at a pre-designated time and placed in the microplate reader. The fluorescence level in each well was monitored at Ex 554 nm and Em 590 nm. Afterwards the numeric numbers/units were used for data analyses.
Fluorescence units in all wells were acquired by the microplate reader at each time point. Data were then exported to scientist's computer equipped with SoftMax ProS software. The average of Background units (Blk, 3×) and the average of each sample set (6 replicates) were determined. For data collected at each time point (cell culture incubation period), the average of Blk units were subtracted from the average of each set of the Sample units. These “net fluorescence unit” data were then presented in a plot consisted of different culture incubation time periods (the x-axis) versus the corresponding net fluorescence units (y-axis).
The “net fluorescence units” of each sample set were also compared to those of the “control” at each time point. “Control fluorescence units” were considered to be 100% at all the time points. Each set of “net fluorescence units” were divided by the “Control fluorescent units” and multiplied by 100 to obtain corresponding percentages. These “relative percentage” data were then presented in a plot consisted of time points (the x-axis) versus the corresponding relative percentages to control of 100 (y-axis).
The inhibitory effect of 4 HNE on the proliferation of FANCA lymphocytes was examined. 4000 cells in 75 μl of RPMI1640 medium containing 15% FBS were plated onto each sample well in a 96-well poly D-lysine coated black/clear cell culture plate and the plate was incubated in a 37° C. 5% CO2 incubator for 7 hours.
Stock of 4 HNE at 64 mM was diluted with RPMI1640 medium to 10 μM, 20 μM, 30 μM, 40 μM, 60 μM, 80 μM, and 120 μM. […]

## COc1ccc(CNC(=O)c2cc(-c3ncccc3CO)ccc2OCC2CC2)cc1F [AC6]
  duration of cell-protective / cell growth promoting effect in FANCA cells: at least 48 hours
3.5 μM 4 HNE, 5 μM and 10 μM AC6, 10 μM AC32, 25 hours to 48 hours after 4 HNE treatment
  relative cell proliferation versus control without AC compounds: higher levels of cell growth than “control”; also recorded: more efficient growth than control
10 μM AC6, 6 μM 4 HNE, between 25 and 48 hours after 4 HNE treatment
  cell proliferation rate: an increase in the cell proliferation rate
10 μM compound, pretreatment 2 hours before 6 μM 4 HNE challenge
  FANCA-deficiency lymphocyte cell growth versus 4 HNE only or 2 μM ALDH2 activators: higher levels of cell growth
Pretreatment 2 hours before 3.5 μM 4 HNE challenge, 2 to 10 μM compound
  FANCA-deficiency lymphocyte cell growth versus 4 HNE only: higher levels of cell growth; also recorded: higher efficacy than AC32
